Results published in patent US11040976B2, “Substrate selective inhibitors of insulin-degrading enzyme (IDE) and uses thereof” (President and Fellows of Harvard College, priority 2015, dated 2021).

What was measured:
[1] = biological target: T1, Human N-His6-IDE42-1019 (E. coli expressed) (Homo sapiens, UniProt P14735); experiment: Fluorescence anisotropy high-throughput screening assay (displacement of probe FL-6b); format: binding
T1 construct: Human N-His6-IDE42-1019 (E. coli expressed); made in house; host or cells: E. coli (Rosetta 2 (DE3) pLysS, plasmid pTrcHis-A)
T1 sequence (P14735 42-1019): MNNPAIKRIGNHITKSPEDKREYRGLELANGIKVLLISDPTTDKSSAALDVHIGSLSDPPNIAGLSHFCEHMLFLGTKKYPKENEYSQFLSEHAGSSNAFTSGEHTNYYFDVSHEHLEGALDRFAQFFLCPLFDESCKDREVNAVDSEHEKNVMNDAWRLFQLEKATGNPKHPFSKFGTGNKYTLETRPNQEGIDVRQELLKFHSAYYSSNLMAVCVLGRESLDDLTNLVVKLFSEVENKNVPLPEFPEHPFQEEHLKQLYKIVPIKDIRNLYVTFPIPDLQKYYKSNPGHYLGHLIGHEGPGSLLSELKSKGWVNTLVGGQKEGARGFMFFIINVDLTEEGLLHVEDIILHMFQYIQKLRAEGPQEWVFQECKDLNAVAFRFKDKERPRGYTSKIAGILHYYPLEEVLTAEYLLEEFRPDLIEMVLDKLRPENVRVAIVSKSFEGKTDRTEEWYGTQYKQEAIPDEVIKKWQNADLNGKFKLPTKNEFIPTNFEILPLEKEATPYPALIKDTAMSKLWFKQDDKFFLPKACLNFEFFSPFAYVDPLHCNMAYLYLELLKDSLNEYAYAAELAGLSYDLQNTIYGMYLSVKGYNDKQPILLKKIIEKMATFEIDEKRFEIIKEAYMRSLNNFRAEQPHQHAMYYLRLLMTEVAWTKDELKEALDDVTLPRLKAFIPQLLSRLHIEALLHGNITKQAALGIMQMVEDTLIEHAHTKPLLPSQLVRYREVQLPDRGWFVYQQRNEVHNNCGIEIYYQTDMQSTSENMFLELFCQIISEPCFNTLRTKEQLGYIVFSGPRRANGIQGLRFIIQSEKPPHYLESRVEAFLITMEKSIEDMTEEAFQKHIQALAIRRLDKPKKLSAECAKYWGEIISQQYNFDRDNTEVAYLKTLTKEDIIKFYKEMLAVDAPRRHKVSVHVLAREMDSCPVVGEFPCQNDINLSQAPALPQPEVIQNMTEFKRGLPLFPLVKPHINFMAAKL
Protocol: The fluorescence anisotropy screening method and probe FL-6b are described in PCT application PCT/US2014/064322, incorporated herein by reference.
Human N-His6-IDE42-1019 (E. coli expressed) was mixed with fluorescein-labeled macrocycle FL-6b:
[drawing 802] in 50 mM Tris buffer pH 8.0, with 1 M NaCl, at 25° C. Optimum signal was obtained using a mixture of […] probe FL-6b and 0.5 μM IDE. The “diversity-oriented (DOS) synthesis informer set” compound plates were pinned onto 384-well plates containing the enzyme-probe mixture (50 μL/well). The azetidine screen was pre-printed on 384-well plates and the enzyme-probe mixture was added (50 μL/well). The final compound concentration was 20 μM. IDE inhibitor 6bK was used as a positive control at a final concentration of 1 μM. After 30 minutes of equilibration, the increase in fluorescence anisotropy was recorded using an EnVision spectrophotometer (excitation 492 nm, emission 523 nm). The fluorescence anisotropy was independently measured twice for each screened compound. The Z-scores for each pair of measurements are plotted in FIG. 1A (DOS informer set) and FIG. 1B (azetidines), and average Z-scores are listed for exemplary compounds in Table E1.
Z-scores were calculated based on the raw anisotropy measured for each well according to Eq. 1, wherein x is the raw anisotropy value of the well, μ is the mean of the anisotropy of the negative control wells (DMSO) for the plate, and σ is the standard deviation in anisotropy of the negative control wells (DMSO) for the plate.

[2] = biological target: T2, recombinant human IDE42-1019 (Homo sapiens, UniProt P14735); experiment: Protease assay with fluorogenic peptide substrate Mca-[…](Dnp)-OH; format: biochemical; conditions: fluorogenic peptide Mca-RPPGFSAFK(Dnp)-OH; for IC50: apparent IC50 for compounds with submaximal inhibition, read-out: IC50 (μM) Proteolysis; for Emax: read-out: Imax (%) Proteolysis (inhibition maximum)
T2 construct: recombinant human IDE42-1019 (R&D Systems); purchased R&D Systems
T2 sequence (P14735 42-1019): T1 sequence (P14735 42-1019)

[3] = final compound concentration 20 μM (6bK control 1 μM), values without asterisk
[4] = plateau at high inhibitor concentration
[5] = values marked *: from the screen using the diversity-oriented synthesis (DOS) informer set of plates, 20 μM

SMILES: Cc1ccccc1-c1ccc(C2C3CN(Cc4ccncc4)CC2N3)cc1 (stereo not drawn) [C3]
- Average Z-score (Fluorescence anisotropy) [1, 3]: −9.02
- IC50 [2]: 5 µM
- Emax [2, 4]: 70%

SMILES: COc1ccccc1-c1ccc(C2C3CN(C(=O)c4cccnc4)CC2N3)cc1 (stereo not drawn) [C4]
- Average Z-score (Fluorescence anisotropy) [1, 3]: −13.76
- IC50 [2]: 7.5 µM
- Emax [2, 4]: 70%

SMILES: Cc1ccccc1-c1ccc(C2C3CN(C(=O)C4CCCCC4)CC2N3)cc1 (stereo not drawn) [C6]
- Average Z-score (Fluorescence anisotropy) [1, 3]: −13.8
- IC50 [2]: 2 µM
- Emax [2, 4]: 60%

SMILES: Cc1ccccc1-c1ccc(C2C3CN(C(=O)C4CCOCC4)CC2N3)cc1 (stereo not drawn) [C7]
- Average Z-score (Fluorescence anisotropy) [1, 3]: −7.7
- IC50 [2]: 2.5 µM
- Emax [2, 4]: 80%

SMILES: Cc1ccccc1-c1ccc(C2C3CN(Cc4cncnc4)CC2N3)cc1 (stereo not drawn) [C8]
- Average Z-score (Fluorescence anisotropy) [1, 3]: −2.58
- IC50 [2]: 7.5 µM
- Emax [2, 4]: 70%

SMILES: Cc1ccccc1-c1ccc(C2C3CN(Cc4cocn4)CC2N3)cc1 (stereo not drawn) [C9]
- Average Z-score (Fluorescence anisotropy) [1, 3]: −3.01
- IC50 [2]: 25 µM
- Emax [2, 4]: > 60%

SMILES: COc1ccccc1-c1ccc([C@H]2[C@@H](CO)N(C(=O)NC(C)C)[C@H]2C#N)cc1 [D2]
- Average Z-score (Fluorescence anisotropy) [1, 3]: −16.33
- Emax [2, 4]: 100%

SMILES: COc1ccccc1-c1ccc([C@@H]2[C@@H](C#N)N(C(=O)NC3CCCCC3)[C@@H]2CO)cc1 [D8]
- Average Z-score (Fluorescence anisotropy) [1, 3]: −33.77
- IC50 [2]: 1 µM
- Emax [2, 4]: 40%

SMILES: COc1ccccc1-c1ccc([C@@H]2[C@@H](C#N)N(C(=O)c3cccnc3)[C@@H]2CO)cc1 [D9]
- Average Z-score (Fluorescence anisotropy) [1, 3]: −12.03
- IC50 [2]: 7.5 µM
- Emax [2, 4]: 60%

SMILES: Cc1ccccc1-c1ccc([C@H]2[C@H](CO)N3C(=O)CN(S(C)(=O)=O)C[C@@H]23)cc1 [compound 061]
- Average Z-score (Fluorescence anisotropy) [1, 3]: −1.36
- IC50 [2]: > 100 µM

SMILES: Cc1cccc(-c2ccc([C@@H]3[C@@H](CO)N4CCCCN(CCC(F)(F)F)C[C@@H]34)cc2)c1 [compound 073]
- Average Z-score (Fluorescence anisotropy) [1, 3]: −0.68
- IC50 [2]: > 50 µM

SMILES: Cc1ccccc1-c1ccc([C@H]2[C@@H](CO)N3CCCCN(S(C)(=O)=O)C[C@@H]23)cc1 [compound 077]
- Average Z-score (Fluorescence anisotropy) [1, 3]: −2.31
- IC50 [2]: > 100 µM

SMILES: Cc1ccccc1-c1ccc([C@@H]2[C@@H](CO)N3C(=O)CN(C(=O)Cc4ccccn4)C[C@@H]23)cc1 [compound 081]
- Average Z-score (Fluorescence anisotropy) [1, 3]: −19.85
- IC50 [2]: 2.5 µM
- Emax [2, 4]: 50%

SMILES: Cc1cccc(-c2ccc([C@H]3[C@@H](CO)N4CCCCN(C(=O)c5cccnc5)C[C@H]34)cc2)c1 [compound 091]
- Average Z-score (Fluorescence anisotropy) [1, 3]: −16.96
- IC50 [2]: 7 µM
- Emax [2, 4]: 70%

SMILES: Cc1ccccc1-c1ccc([C@@H]2[C@H]3CN(C(=O)c4ccncc4)CC(=O)N3[C@H]2CO)cc1 [compound 102]
- Average Z-score (Fluorescence anisotropy) [1, 5]: −13.56*
- Emax [2, 4]: 80%

SMILES: Cc1ccccc1-c1ccc([C@H]2[C@@H](CO)N3CCCCN(C(=O)c4cccnc4)C[C@H]23)cc1 [compound 106]
- Average Z-score (Fluorescence anisotropy) [1, 3]: −16.48
- Emax [2, 4]: 80%

SMILES: Cc1ccccc1-c1ccc([C@H]2[C@H](CO)N3C(=O)CN(C(=O)c4ccc(F)cc4)C[C@@H]23)cc1 [compound 124]
- Average Z-score (Fluorescence anisotropy) [1, 3]: −16.49
- Emax [2, 4]: 70%

SMILES: Cc1ccccc1-c1ccc([C@@H]2[C@H]3CN(C(=O)Cc4ccccn4)CC(=O)N3[C@H]2CO)cc1 [compound 140]
- Average Z-score (Fluorescence anisotropy) [1, 3]: −17.72
- IC50 [2]: 2.5 µM
- Emax [2, 4]: 50%

SMILES: COc1ccccc1C#Cc1ccc([C@H]2[C@H]3CN(C(=O)C4CCC4)CCCCN3[C@H]2CO)cc1 [compound 141]
- Average Z-score (Fluorescence anisotropy) [1, 5]: −17.53*
- IC50 [2]: > 100 µM

SMILES: O=C(C1CCOCC1)N1CC(=O)N2[C@H](CO)[C@H](c3ccc(C#Cc4cccc(F)c4)cc3)[C@H]2C1 [compound 142]
- Average Z-score (Fluorescence anisotropy) [1, 3]: −19.27
- IC50 [2]: 6 µM
- Emax [2, 4]: ~100%

SMILES: COc1ccccc1NC(=O)N1CCCCN2[C@H](CO)[C@@H](c3ccc(-c4cccc(C)c4)cc3)[C@@H]2C1 [compound 154]
- Average Z-score (Fluorescence anisotropy) [1, 3]: −2.84
- IC50 [2]: > 10 µM
- Emax [2, 4]: 20%

SMILES: COc1ccccc1C#Cc1ccc([C@H]2[C@H](CO)N3CCCCN(C(=O)C4CCC4)C[C@@H]23)cc1 [compound 180]
- Average Z-score (Fluorescence anisotropy) [1, 5]: −12.26*
- Emax [2, 4]: 80%

SMILES: O=C(CC1CC1)N1CC(=O)N2[C@H](C1)[C@H](c1ccc(C#Cc3ccccc3)cc1)[C@@H]2CO [compound 187]
- Average Z-score (Fluorescence anisotropy) [1, 3]: −15.91
- IC50 [2]: > 20 µM

SMILES: Cc1ccccc1-c1ccc([C@@H]2[C@@H](CO)N3CCCCN(S(=O)(=O)c4ccc(F)cc4)C[C@@H]23)cc1 [compound 217]
- Average Z-score (Fluorescence anisotropy) [1, 3]: −17.51
- Emax [2, 4]: 40%

SMILES: Cc1ccccc1-c1ccc([C@H]2[C@@H](CO)N3CCCCN(C(=O)Nc4ccc(F)cc4)C[C@@H]23)cc1 [compound 226]
- Average Z-score (Fluorescence anisotropy) [1, 3]: −1.67
- Emax [2, 4]: 30%

SMILES: Cc1ccccc1-c1ccc([C@H]2[C@@H](CO)N3CCCCN(S(=O)(=O)Cc4ccccc4)C[C@@H]23)cc1 [compound 236]
- Average Z-score (Fluorescence anisotropy) [1, 3]: −1.64
- IC50 [2]: > 200 µM

SMILES: Cc1ccccc1-c1ccc([C@H]2[C@@H](CO)N3CCCCN(C(=O)NC4CCCC4)C[C@H]23)cc1 [compound 255]
- Average Z-score (Fluorescence anisotropy) [1, 3]: −17.33
- Emax [2, 4]: 50%

SMILES: Cc1ccccc1-c1ccc([C@H]2[C@@H](CO)N3CCCCN(C(=O)Nc4cccc(F)c4)C[C@@H]23)cc1 [compound 269]
- Average Z-score (Fluorescence anisotropy) [1, 3]: −4.36
- Emax [2, 4]: 30%

SMILES: Cc1cccc(-c2ccc([C@@H]3[C@@H](CO)N4CCCCN(C(=O)c5cccnc5)C[C@@H]34)cc2)c1 [compound 296]
- Average Z-score (Fluorescence anisotropy) [1, 3]: −3.25
- IC50 [2]: > 100 µM

SMILES: Cc1cccc(-c2ccc([C@@H]3[C@H]4CN(C(=O)c5ccncc5)CCCCN4[C@H]3CO)cc2)c1 [compound 316]
- Average Z-score (Fluorescence anisotropy) [1, 3]: −16.96
- IC50 [2]: > 10 µM

SMILES: Cc1ccccc1-c1ccc([C@H]2[C@H](CO)N3C(=O)CN(C(=O)Cc4ccccn4)C[C@@H]23)cc1 [compound 321]
- Average Z-score (Fluorescence anisotropy) [1, 3]: −17.72
- Emax [2, 4]: 50%

SMILES: Cc1cccc(-c2ccc([C@@H]3[C@@H](CO)N4CCCCN(S(=O)(=O)c5cn(C)cn5)C[C@@H]34)cc2)c1 [compound 342]
- Average Z-score (Fluorescence anisotropy) [1, 3]: −17.53
- IC50 [2]: 0.6 µM
- Emax [2, 4]: 50%

SMILES: Cc1cccc(-c2ccc([C@@H]3[C@@H](CO)N4C(=O)CN(C(=O)Cc5ccccn5)C[C@@H]34)cc2)c1 [compound 348]
- Average Z-score (Fluorescence anisotropy) [1, 3]: −11.8
- IC50 [2]: 7 µM
- Emax [2, 4]: 40%

SMILES: Cc1ccccc1-c1ccc([C@@H]2[C@@H](CO)N3CCCCN(C(=O)c4cccnc4)C[C@@H]23)cc1 [compound 353]
- Average Z-score (Fluorescence anisotropy) [1, 3]: −7.98
- Emax [2, 4]: 50%

SMILES: Cc1ccccc1-c1ccc([C@H]2[C@@H](CO)N3CCCCN(C(=O)c4cccnc4)C[C@H]23)cc1 [compound 397]
- Average Z-score (Fluorescence anisotropy) [1, 3]: −11.37
- Imax (%) Proteolysis (inhibition maximum) [2, 4]: 70%

SMILES: CCS(=O)(=O)N1CCCCN2[C@H](CO)[C@@H](c3ccc(-c4ccccc4C)cc3)[C@@H]2C1 [compound 416]
- Average Z-score (Fluorescence anisotropy) [1, 3]: −18.29
- Emax [2, 4]: 60%
